{"source": "patent US4888333A", "about": "“Allymercaptoacetylsydnonimines, processes for their preparation, and their use” (Cassella Aktiengessellschaft, priority 1987, dated 1989)"}
{"test_system": "pulmonary artery of the guinea pig", "test": "Relaxant effect: inhibition of CaCl2-triggered contraction of potassium-depolarized spiral strips of the pulmonary artery", "assay_type": "cell-based", "conditions": "Cavia porcellus, calcium-free Tyrode's solution, 40 mmol/l potassium, 0.5 mmol/l CaCl2, mean of 4 to 6 vessel strips, read-out: IC50 (concentration of the test substance which inhibits contraction by 50%)", "from_the_text": "(§1) The pharmacological action of the compounds of the formula I was established using a modification of the method of Godfraind and Kaba (Arch. Int. Pharmacodyn. Ther. 196, (Suppl) 35 to 49, 1972) and of Schumann et al. (Naunyn-Schmiedeberg's Arch. Pharmacol. 289, 409 to 481, 1975). This entails spiral strips of the pulmonary artery of the guinea pig being equilibrated in calcium-free Tyrode's solution and then depolarized with 40 mmol/l of potassium. Addition of 0.5 mmol/l of CaCl2 then triggers a contraction. The relaxant effect of the test substance is established by cumulative addition of concentrations in 1/2 log 10 steps. The concentration of the test substance which inhibits contraction by 50% (=IC50, mol/l) is established from the concentration/effect graph (abscissa: -log mol/l test substance, ordinate: % inhibition of the maximum contraction, mean of 4 to 6 vessel strips).", "units": {"IC50": "µM"}}
{"compound": "C=CCSCC(=O)[N-]c1c[n+](N2CCOCC2)no1", "note": "[Example 1, 3-Morpholino-N-allylmercaptoacetylsydononimine]", "IC50": 20}
{"compound": "C=CCSCC(=O)[N-]c1c[n+](N2CCN(C(=O)OCC)CC2)no1", "note": "[Example 2, 3-(4-Ethoxycarbonyl-1-piperazinyl)-N-allylmercaptoacetylsydnonimine]", "IC50": 80}
{"compound": "C=CCSCC(=O)[N-]c1c[n+](N2CCN(S(C)(=O)=O)CC2)no1", "note": "[Example 3, 3-(4-Methylsulphonyl-1-piperazinyl)-N-allylmercaptoacetylsydnonimine]", "IC50": 30}
{"compound": "C=CCSCC(=O)[N-]c1c[n+](N2CCN(S(=O)(=O)N(C)C)CC2)no1", "note": "[Example 4, 3-(4-Dimethylaminosulphonyl-1-piperazinyl)-N-allylmercaptoacetylsydnonimine]", "IC50": 30}
{"compound": "C=CCSCC(=O)[N-]c1c[n+](N2CCS(=O)(=O)CC2)no1", "note": "[Example 5, 3-(1,1-Dioxotetrahydro-1,4-thiazin-4-yl)-N-allylmercaptoacetylsydnonimine]", "IC50": 30}
{"compound": "C=CCSCC(=O)[N-]c1c[n+](N(C)C2CCS(=O)(=O)C2)no1", "note": "(stereo not shown) [Example 6, 3-(N-Methyl-N-1,1-dioxotetrahydro-3-thienylamino)-N-allylmercaptoacetylsydnonimine]", "IC50": 10}
{"compound": "C=CCSCC(=O)[N-]c1c[n+](N(C)C)no1", "note": "[Example 7, 3-Dimethylamino-N-allylmercaptoacetylsydnonimine]", "IC50": 30}
{"compound": "C=CCSCC(=O)[N-]c1c[n+](N2CCCCC2)no1", "note": "[Example 8, 3-Piperidino-N-allylmercaptoacetylsydnonimine]", "IC50": 20}
{"compound": "CCOC(=O)[N-]c1cn(N2CCOCC2)n[o+]1", "note": "[Molsidomine, N-ethoxycarbonyl-3-morpholinosydnonimine, reference compound]", "IC50": 100}
{"test_system": "pulmonary artery of the guinea pig", "test": "Relaxant effect: inhibition of CaCl2-triggered contraction of potassium-depolarized spiral strips of the pulmonary artery", "assay_type": "cell-based", "conditions": "calcium-free Tyrode's solution, 40 mmol/l potassium, 0.5 mmol/l CaCl2, mean of 4 to 6 vessel strips, read-out: IC50 (concentration of the test substance which inhibits contraction by 50%)", "from_the_text": "as §1", "units": {"IC50": "µM"}}
{"compound": "CCOC(=O)[N-]c1cn(N2CCOCC2)n[o+]1", "note": "[Molsidomine, N-ethoxycarbonyl-3-morpholinosydnonimine, reference compound]", "IC50": "> 100"}
